Experimental data published in patent publication US9719981B2, “RAC1 inhibitors for the treatment of alport glomerular disease” (Father Flanagan's Boys' Home, priority 2012, dated 2017).

Test system: FAK
Assay: pFAK397 western blot in primary mesangial cells with TAE226
Type: cell-based, mouse
Details: 0.5 and 1.0 μM TAE226, five hours
Description: Primary Mesangial Cells were derived and characterized as previously described (Cosgrove et al., 2008, Am J Pathol; 172: 761-773). Three independent Transwell Migration Assays were performed using 0.5 μM TAE226 as previously described. For pFAK Western Blot^397, cells were maintained on 1% FCS-containing media for two days, overnight in 0.1% BSA (Fraction V, Roche Diagnostics, Mannheim, Germany) and TAE226 added to 0.5 and 1.0 μM. After five hours protein was collected in M-PER™ (Thermo Scientific, Rockford, Ill.) containing Protease Inhibitor Cocktail P8340 at 1:100 (Sigma, St. Louis, Mo.), 5 mM Sodium Fluoride (Sigma), and 2 mM Sodium Orthovanadate (Sigma) and Western Blots run as described below.
Immunoblotting. Ten to fifteen micrograms, of cellular protein, was resolved in a 10% SDS-PAGE and then electrotransfered to PVDF membrane. The membranes were cut in half and the upper half (250 kDa to 75 kDa) used for pFAK/tFAK immunoblotting while the bottom half used for β-actin immunoblotting (loading control). Conditions for pFAK detection: the membrane was blocked in milk blocking solution (5% milk containing 0.2% Tween-20 in PBS) for 1 hour at room temperature with constant shaking and incubated overnight at 4° C. with anti-pFAK 1:1,000 in BSA blocking solution (1% BSA containing 0.2% Tween-20 in PBS). […]

CNC(=O)c1ccccc1Nc1nc(Nc2ccc(N3CCOCC3)cc2OC)ncc1Cl [TAE226]
pFAK activation in mesangial cells: blocked pFAK activation in a dose-dependent manner
